{"source": "paper PMC5175284", "about": "“Mechanistic Study of Tetrahydrofuran- acetogenins In Triggering Endoplasmic Reticulum Stress Response-apotoposis in Human Nasopharyngeal Carcinoma” (Scientific Reports, 2016)", "key": {"[1]": {"tested_on": "NPC-TW01 cells", "assay": "Mitochondrial Ca2+ concentration (Rhod-2, flow cytometry)", "type": "cell-based, human", "settings": "24 hours", "procedure": "(§1) The cytosolic and mitochondrial Ca^2+ concentrations were measured using fluo-3 and Rhod-2, respectively. The intensity of de-esterification of intracellular AM esters in the THF-ACGs treated or control tumor cells were measured after 30 mins of incubation. For each analysis, 10,000 events were recorded and results were analyzed using De Novo software."}, "[2]": {"tested_on": "H226 cells", "assay": "Growth inhibition assay (MTT), H226", "type": "cell-based", "settings": "Homo sapiens, NCI-H226, treated for three generations, read-out: Growth inhibitory activity IC50, H226", "procedure": "(§2) The colorimetric assay for cellular growth and survival was performed as described by Hansen et al., with slight modifications. Pre-determinate numbers of cells were seeded in a 96-well microplate and designated compounds at various concentrations were added for the indicated time period. MTT containing solution was added after compound treatment and conversion of MTT to formazan by metabolically viable cells was measured by absorbance at 490 nm in a 96-well microtiter plate reader. The percentage of conversion by mock-treated control cells was used to evaluate the effect of the chemicals on cell growth and to determine the IC50 concentration."}, "[3]": {"tested_on": "SCC-25 cells", "assay": "Growth inhibition assay (MTT), SCC-25", "type": "cell-based", "settings": "Homo sapiens, Supplemental Table 1, read-out: Growth inhibitory activity IC50, SCC-25", "procedure": "as §2"}, "[4]": {"tested_on": "NPC-TW01 cells", "assay": "Mitochondrial membrane potential (DiOC6 staining, flow cytometry)", "type": "cell-based, human", "settings": "IC50 concentration, 24 hours", "procedure": "To measure the change of mitochondrial potential transition (MPT), THF-ACGs treated cells were labeled with 100 nM DiOC6, harvested and suspended in PBS. The intensity of DiOC6 in cells was measured using FACScan flow cytometer."}, "[5]": {"tested_on": "Detroit 551 cells", "assay": "Growth inhibition assay (MTT), Detroit 551 normal fibroblasts", "type": "cell-based", "settings": "Homo sapiens, treated for three generations, read-out: Growth inhibitory activity IC50, Detroit 551", "procedure": "as §2"}, "[6]": {"tested_on": "NPC-TW01 cells", "assay": "Annexin-V/PI apoptosis assay by flow cytometry", "type": "cell-based, human", "settings": "IC50 concentration, 36 hours", "procedure": "THF-ACGs induced apoptotic phenomena were monitored by The Annexin V-FITC Apoptosis Detection Kit II (BD Biosciences Pharmingen) according to the manufacturer’s instructions. Briefly, THF-ACGs-treated or control cells were collected and resuspended in 400 μL 1 × binding buffer at a concentration of ~1 × 10^6 cells/ml, and 5 μL of purified recombinant Annexin V and PI reagent were added. After incubation at room temperature for 15 min in the dark, the intensity of Annexin V and PI was measured by flow cytometer immediately and results were analyzed using De Novo software (MultiCycle AV Plug-in for FCS Express)."}, "[7]": {"tested_on": "OECM-1 cells", "assay": "Growth inhibition assay (MTT), OECM-1", "type": "cell-based", "settings": "Homo sapiens, OECM1, Supplemental Table 1, read-out: Growth inhibitory activity IC50, OECM-1", "procedure": "as §2"}, "[8]": {"tested_on": "Hep 3B cells", "assay": "Growth inhibition assay (MTT), Hep 3B", "type": "cell-based", "settings": "Homo sapiens, Hep3B, treated for three generations, footnote a, read-out: Growth inhibitory activity IC50, Hep 3B", "procedure": "as §2"}, "[9]": {"tested_on": "FaDu cells", "assay": "Growth inhibition assay (MTT), FaDu", "type": "cell-based", "settings": "Homo sapiens, treated for three generations, read-out: Growth inhibitory activity IC50, FaDu", "procedure": "as §2"}, "[10]": {"tested_on": "SCC-15 cells", "assay": "Growth inhibition assay (MTT), SCC-15", "type": "cell-based", "settings": "Homo sapiens, Supplemental Table 1, read-out: Growth inhibitory activity IC50, SCC-15", "procedure": "as §2"}, "[11]": {"tested_on": "HONE R-MTX cells", "assay": "Growth inhibition assay (MTT), methotrexate-resistant HONE-1", "type": "cell-based", "settings": "Homo sapiens, HONE1, drug-resistant cell line, three generations, read-out: Growth inhibitory activity IC50, HONE R-MTX", "procedure": "as §2"}, "[12]": {"tested_on": "NPC-TW01 cells", "assay": "Growth inhibition assay (MTT), NPC-TW01", "type": "cell-based", "settings": "Homo sapiens", "procedure": "as §2"}, "[13]": {"tested_on": "NPC-TW01 cells", "assay": "Cell cycle distribution by PI staining and flow cytometry", "type": "cell-based, human", "settings": "IC50 concentration, 24 hours", "procedure": "To measure the THF-ACGs effect on the cell cycle distribution, the THF-ACGs-treated cells were collected, fixed with ice-cold alcohol, treated with RNase and stained with propidium iodide. The DNA content of each sample was evaluated by FACScan flow cytometer and ratio of cell cycle phases were determined by ModFit software (Verity Software House Inc., Topsham, ME)."}, "[14]": {"tested_on": "HT-1080 cells", "assay": "Growth inhibition assay (MTT), HT-1080", "type": "cell-based", "settings": "Homo sapiens, treated for three generations, read-out: Growth inhibitory activity IC50, HT-1080", "procedure": "as §2"}, "[15]": {"tested_on": "HONE-1 cells", "assay": "Growth inhibition assay (MTT), HONE-1", "type": "cell-based", "settings": "Homo sapiens, HONE1, treated for three generations, read-out: Growth inhibitory activity IC50, HONE-1", "procedure": "as §2"}, "[16]": {"tested_on": "Jurkat cells", "assay": "Growth inhibition assay (MTT), Jurkat", "type": "cell-based", "settings": "Homo sapiens, treated for three generations, read-out: Growth inhibitory activity IC50, Jurkat", "procedure": "as §2"}, "[17]": {"tested_on": "NPC-TW01 cells", "assay": "Cytosolic Ca2+ concentration (Fluo-3, flow cytometry)", "type": "cell-based, human", "settings": "IC50 concentration, 24 hours", "procedure": "as §1"}, "[18]": {"tested_on": "TW01-R-MTX cells", "assay": "Growth inhibition assay (MTT), methotrexate-resistant NPC-TW01", "type": "cell-based", "settings": "Homo sapiens, drug-resistant cell line, three generations, read-out: Growth inhibitory activity IC50, TW01-R-MTX", "procedure": "as §2"}, "[19]": {"tested_on": "NPC-TW01 cells", "assay": "Caspase inhibition assay (MTT cell survival)", "type": "cell-based, human", "settings": "pretreated 1 hour, squamostatin A for 72 hours", "procedure": "For caspase inhibition experiments, cell-permeable and irreversible inhibitors of caspase-12 were added to the medium one hour before the administration of squamostatin A. Cell survival was determined using the MTT assay to evaluate the effects of the test compound on cell growth, as described previously."}, "[20]": {"tested_on": "NPC-TW01 xenograft", "assay": "NPC-TW01 s.c. xenograft antitumor experiment", "type": "in vivo, BALB/c nude mice", "settings": "squamostatin A 0.5 mg/kg i.p. every three days; paclitaxel 10 mg/kg weekly", "procedure": "For the antitumor xenograft experiments, specific pathogen–free male athymic BALB/c nude mice, 6 to 8 weeks of age, were inoculated with 1 × 10^6 of exponential growth viable NPC-TW01 cells at the right flank of mice and mice were randomly divided into three groups (8 in each group). Tumor-implanted mice were treated i.p. with vehicle (5% DMSO/10% cremophor/85% saline) or 0.5 mg/kg squamostatin A every three days. Paclitaxel (10 mg/kg, once a week) was used as a positive control. Tumor size was measured every three days with a caliper, and tumor volume was calculated by the following formula: V = (1/2) × […]. At the end of the experiments, the animals were euthanized by carbon dioxide inhalation, followed by cervical dislocation. The animal experiments were supervised and approved by the Institutional Animal Care and Use Committee (IACUC) of China Medical University (Taichung, Taiwan). All animal studies were performed in accordance with the Animal Protection Act of Taiwan."}, "[21]": {"settings": "treated for three generations, read-out: Growth inhibitory activity IC50, NPC-TW01"}}, "note": "Like-named read-outs stand apart in the source and are kept apart here. * marks the point of attachment. Cbz = O=C(OCc1ccccc1)*; CH2F = FC*"}
{"compound": "NCCOB(c1ccccc1)c1ccccc1", "note": "[2-APB, 2-Aminoethoxydiphenyl borate, reference compound]", "values": [{"measurement": "Content of mitochondrial calcium on squamostatin A treatment in the presence of 2-APB", "setting": "[1]; 2-APB 10 μM, squamostatin A IC50 concentration", "result": "diminish the content of mitochondrial calcium"}]}
{"compound": "CCCCCCCCCCCC[C@@H](O)[C@H]1CC[C@@H]([C@@H](O)CCCCC(=O)CCCCCCCC2=C[C@H](C)OC2=O)O1", "note": "[corossolone]", "values": [{"measurement": "IC50", "setting": "[2]; footnote a", "result": "> 2", "unit": "µM"}, {"measurement": "IC50", "setting": "[3]", "result": "> 2", "unit": "µM"}, {"measurement": "Decrease of mitochondrial membrane potential vs Ctrl", "setting": "[4]", "result": 27, "unit": "%"}, {"measurement": "Mitochondrial membrane potential GEO mean value, Treated", "setting": "[4]", "result": 777}, {"measurement": "IC50", "setting": "[5]", "result": 0.354, "unit": "µM"}, {"measurement": "Annexin-V positive, E (early phase apoptosis)", "setting": "[6]", "result": 4.9, "unit": "%"}, {"measurement": "Annexin-V positive, L (late phase apoptosis)", "setting": "[6]", "result": 7.4, "unit": "%"}, {"measurement": "IC50", "setting": "[7]", "result": "> 2", "unit": "µM"}, {"measurement": "IC50", "setting": "[8]", "result": "> 2", "unit": "µM"}, {"measurement": "IC50", "setting": "[9]; footnote a", "result": "> 2", "unit": "µM"}, {"measurement": "IC50", "setting": "[10]", "result": "> 2", "unit": "µM"}, {"measurement": "IC50", "setting": "[11]", "result": 0.147, "unit": "µM"}, {"measurement": "IC50", "setting": "[12]; Supplemental Table 1, read-out: Growth inhibitory activity IC50, NPC-TW01 (Supplemental Table 1)", "result": 0.0313, "unit": "µM"}, {"measurement": "IC50", "setting": "[12]; [21]", "result": 0.121, "unit": "µM"}, {"measurement": "Cell cycle distribution, G0/G1", "setting": "[13]", "result": 40.9, "unit": "%"}, {"measurement": "Cell cycle distribution, G2/M", "setting": "[13]", "result": 30.5, "unit": "%"}, {"measurement": "Cell cycle distribution, S", "setting": "[13]", "result": 28.6, "unit": "%"}, {"measurement": "IC50", "setting": "[14]", "result": 0.705, "unit": "µM"}, {"measurement": "IC50", "setting": "[15]", "result": 0.132, "unit": "µM"}, {"measurement": "Ca2+ Mitochondria (Rho-2) GEO mean value, Treated", "setting": "[1]; IC50 concentration", "result": 149.2}, {"measurement": "Increase of mitochondrial Ca2+ (Rho-2) vs Ctrl", "setting": "[1]; IC50 concentration", "result": 29, "unit": "%"}, {"measurement": "IC50", "setting": "[16]", "result": 0.0003, "unit": "µM"}, {"measurement": "Ca2+ Cytosol (Fluo-3) GEO mean value, Treated", "setting": "[17]", "result": 149.2}, {"measurement": "IC50", "setting": "[18]", "result": 0.0288, "unit": "µM"}]}
{"compound": "Cbz-ATAD-CH2F", "values": [{"measurement": "Effect of caspase-12 inhibitor pretreatment on squamostatin A toxicity against NPC-TW01 cell growth", "setting": "[19]", "result": "significantly block the toxicity of squamostatin A"}]}
{"compound": "CC(=O)O[C@H]1C(=O)[C@@]2(C)[C@H]([C@H](OC(=O)c3ccccc3)[C@]3(O)C[C@H](OC(=O)[C@H](O)[C@@H](NC(=O)c4ccccc4)c4ccccc4)C(C)=C1C3(C)C)[C@]1(OC(C)=O)CO[C@@H]1C[C@@H]2O", "note": "[paclitaxel, Paclitaxel]", "values": [{"measurement": "Overall tumor volume between weeks 6 and 13", "setting": "[20]", "result": "tumor continued growth slowly"}]}
{"compound": "CN(Cc1cnc2nc(N)nc(N)c2n1)c1ccc(C(=O)N[C@@H](CCC(=O)O)C(=O)O)cc1", "note": "[methotrexate, reference compound]", "values": [{"measurement": "IC50", "setting": "[2]", "result": 0.0398, "unit": "µM"}, {"measurement": "IC50", "setting": "[5]; footnote a", "result": 2, "unit": "µM"}, {"measurement": "IC50", "setting": "[8]", "result": "> 2", "unit": "µM"}, {"measurement": "IC50", "setting": "[9]", "result": 0.0921, "unit": "µM"}, {"measurement": "IC50", "setting": "[11]; footnote a", "result": 39.6, "unit": "µM"}, {"measurement": "IC50", "setting": "[12]; [21]", "result": 0.043, "unit": "µM"}, {"measurement": "IC50", "setting": "[14]", "result": 0.0141, "unit": "µM"}, {"measurement": "IC50", "setting": "[15]", "result": 0.0657, "unit": "µM"}, {"measurement": "IC50", "setting": "[16]", "result": 0.0183, "unit": "µM"}, {"measurement": "IC50", "setting": "[18]; footnote b", "result": 1900, "unit": "µM"}]}
